In the assay the target is T1, human SSTR5 (Homo sapiens, UniProt P35346).
T1 construct: expressed in transfected cells
T1 sequence (P35346 whole entry): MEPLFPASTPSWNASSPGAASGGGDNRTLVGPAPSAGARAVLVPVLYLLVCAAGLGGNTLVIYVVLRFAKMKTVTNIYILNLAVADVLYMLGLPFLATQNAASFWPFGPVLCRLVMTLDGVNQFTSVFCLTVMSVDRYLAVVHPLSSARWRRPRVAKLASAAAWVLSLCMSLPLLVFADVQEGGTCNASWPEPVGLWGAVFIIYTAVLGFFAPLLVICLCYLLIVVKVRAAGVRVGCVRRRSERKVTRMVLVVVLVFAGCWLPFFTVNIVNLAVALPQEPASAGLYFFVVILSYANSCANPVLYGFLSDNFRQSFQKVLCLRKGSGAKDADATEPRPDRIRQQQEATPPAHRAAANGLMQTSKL
In words: Inositol phosphate accumulation assay (IP1 HTRF, antagonist mode). The assay is classed as cell-based. The settings on record: CHO-K1 cells co-expressing human SSTR5 with Gqi5, SST28 agonist at concentration generating 90% of full activation. From the text: CHO-K1 cells stably co-expressing human SSTR5 with Gqi5 were developed using Jump-In technology from Thermo-Fisher. Gqi5 is the mouse G alpha q protein, that was modified to interact with Gi-coupled GPCRs as described previously (Coward, P.; Chan, S. D.; Wada, H. G.; Humphries, G. M.; Conklin, B. R. Chimeric G proteins Allow a High-Throughput Signaling Assay of Gi-Coupled Receptors. Anal Biochem. 1999, 270(2),242-248).
Co-expression of Gqi5 with SSTR5 allowed monitoring of SSTR5 activity by following IP1 accumulation. The assay was performed in a 384-well plate format using the IP1 assay kit from Cis-Bio in an antagonist mode, i.e., pre-incubation with antagonist following by receptor activation by agonist at a concentration generating 90% of full activation. Frozen cells expressing human SSTR5 were thawed, washed, and then plated in DMEM supplemented with 10% FBS and non-essential amino acids. 40 μL of 2.5×10^5 cells/mL were plated on a Poly D-Lysine coated 384-well white plate. The cells were then incubated for 16 hr. at 37° C/5% CO2. After 16 hour the medium was removed, and 10 μL of stimulation buffer was added to the cells. Test compounds were dissolved in DMSO at concentrations 2000-fold that of the final assay concentrations. 7.5 nLcompound solutions were transferred to the cell plates using a Labcyte Echo® acoustic liquid handler. The plates were then incubated for 15 minutes at 37° C/5%CO2. After the first incubation, 5 μL of 30 nM SST28 were added to the cells, and the cells were incubated for 90 minutes at 37° C/5%CO2. 5 μL of detection buffer (prepared as described in the IP-1 kit) was added to each well, and the plates were incubated at RT for 1 hour.
TR-FRET was measured using a ClarioSTAR plate reader, calculating the ratio between emissions at 665 nm and 620 nm (HTRF ratio). The HTRF ratio for positive (Max) and negative (Min) controls were used to normalize HTRF data and generate values for % inhibition. IC50 and maximal inhibition values were determined using a standard 4-parameter fit.
(In general: TR-FRET usually uses a lanthanide donor and a delayed reading to cut background.)
Regarding `CCOc1cc(C(=O)OC)c(C2CC2)cc1CN1CCC2(CC1)CC(=O)N(c1ccc(C(=O)NCCNC(=O)NCCO)cc1)C2` [compound 13, Methyl 2-cyclopropyl-5-ethoxy-4-[[2-[4-[2-(2-hydroxyethylcarbamoylamino)ethylcarbamoyl]phenyl]-3-oxo-2,8-diazaspiro[4.5]decan-8-yl]methyl]benzoate], the IC50 is above 5000 nM. Then `CCOc1cc(C(=O)OC)c(C2CC2)cc1CN1CCC2(CC1)CC(=O)N(c1ccc(C(=O)NCCCC(=O)NCCO)cc1)C2` [Example 15, methyl 2-cyclopropyl-5-ethoxy-4-((2-(4-((4-((2-hydroxyethyl)amino)-4-oxobutyl)carbamoyl)phenyl)-3-oxo-2,8-diazaspiro[4.5]decan-8-yl)methyl)benzoate], with 1000 to 5000 nM; and `CCOc1cc(C(=O)OC)c(C2CC2)cc1CN1CCC2(CC1)CC(=O)N(c1ccc(C(=O)NCCCN)cc1)C2` [Example 46, methyl 4-((2-(4-((3-aminopropyl)carbamoyl)phenyl)-3-oxo-2,8-diazaspiro[4.5]decan-8-yl)methyl)-2-cyclopropyl-5-ethoxybenzoate], with above 5000 nM.

For `CCOc1cc(C(=O)OC)c(C2CC2)cc1CN1CCC2(CC1)CN(c1ccc(C(=O)NCCCS(=O)(=O)O)cc1)C(=O)N2` [Example 78, 3-(4-(8-(5-cyclopropyl-2-ethoxy-4-(methoxycarbonyl)benzyl)-2-oxo-1,3,8-triazaspiro[4.5]decan-3-yl)benzamido)propane-1-sulfonic acid], the IC50 is above 5000 nM.

The molecule `CCOc1cc(C(=O)OC)c(C2CC2)cc1CN1CCC2(CC1)CC(=O)N(c1ccc(C(=O)NCCC(O)CO)cc1)C2` (centres unmarked) [Example 48, methyl 2-cyclopropyl-4-((2-(4-((3,4-dihydroxybutyl)carbamoyl)phenyl)-3-oxo-2,8-diazaspiro[4.5]decan-8-yl)methyl)-5-ethoxybenzoate] had an IC50 of 100 to 1000 nM. Then `CCOc1cc(CN2CCC3(CC2)CN(c2ccc(C(=O)N[C@@H](CC(=O)O)C(=O)O)cc2)C(=O)O3)cc(OCC)c1-c1ccc(F)cc1` [Example 9, (4-(8-((2,6-diethoxy-4′-fluoro-[1,1′-biphenyl]-4-yl)methyl)-2-oxo-1-oxa-3,8-diazaspiro[4.5]decan-3-yl)benzoyl)-L-aspartic acid], with 100 to 1000 nM; and `CCOc1cc(-c2ccc(F)cc2F)c(C2CC2)cc1CN1CCC2(CC1)CN(c1ccc(C(=O)NCCOCCO)cc1)C(=O)N2` [Example 72, 4-(8-((2-cyclopropyl-5-ethoxy-2′,4′-difluoro-[1,1′-biphenyl]-4-yl)methyl)-2-oxo-1,3,8-triazaspiro[4.5]decan-3-yl)-N-(2-(2-hydroxyethoxy)ethyl)benzamide], with at most 100 nM. Then `CCOc1cc(C(=O)OC)c(C2CC2)cc1CN1CCC2(CC1)CN(c1ccc(C(=O)NCCCNC(N)=O)cc1)C(=O)O2` [Example 57, methyl 2-cyclopropyl-5-ethoxy-4-((2-oxo-3-(4-((3-ureidopropyl)carbamoyl)phenyl)-1-oxa-3,8-diazaspiro [4.5]decan-8-yl)methyl)benzoate], with at most 100 nM. In turn, `CCOc1cc(C(=O)OC)c(C2CC2)cc1CN1CCN(C(=O)Cc2ccc(C(=O)NC[C@H](O)[C@@H](O)[C@H](O)[C@H](O)CO)cc2)CC1` [Example 97, methyl 2-cyclopropyl-5-ethoxy-4-((4-(2-(4-(((2S,3R,4R,5R)-2,3,4,5,6-pentahydroxyhexyl)carbamoyl)phenyl)acetyl)piperazin-1-yl)methyl)benzoate] registered an IC50 above 5000 nM. In the case of `CCOc1cc(CN2CCC3(CC2)CN(c2ccc(C(=O)NCCCC(=O)NC(CO)(CO)CO)cc2)C(=O)O3)cc(OCC)c1-c1ccc(F)cc1` [Example 5] it was 100 to 1000 nM. Then `CCOc1cc(C(=O)OC)c(C2CC2)cc1CN1CCC2(CC1)CC(=O)N(c1ccc(C(=O)NCCOCC[N+]34CCN(CC3)CC4)cc1)C2` [Example 45, 1-(2-(2-(4-(8-(5-cyclopropyl-2-ethoxy-4-(methoxycarbonyl)benzyl)-3-oxo-2,8-diazaspiro[4.5]decan-2-yl)benzamido)ethoxy)ethyl)-1,4-diazabicyclo[2.2.2]octan-1-ium], with above 5000 nM; and `CCOc1cc(C(=O)OC)c(C2CC2)cc1CN1CCC2(CC1)CC(=O)N(c1ccc(C(=O)NCCNC(=O)NC(CO)(CO)CO)cc1)C2` [Example 18, methyl 2-cyclopropyl-4-((2-(4-((2-(3-(1,3-dihydroxy-2-(hydroxymethyl)propan-2-yl)ureido)ethyl)carbamoyl)phenyl)-3-oxo-2,8-diazaspiro[4.5]decan-8-yl)methyl)-5-ethoxybenzoate], with 100 to 1000 nM; and `CCOc1cc(-c2nc(C)no2)c(C2CC2)cc1CN1CCC2(CC1)CN(c1ccc(C(=O)NCCOCCO)cc1)C(=O)N2` [Example 67, 4-(8-(5-cyclopropyl-2-ethoxy-4-(3-methyl-1,2,4-oxadiazol-5-yl)benzyl)-2-oxo-1,3,8-triazaspiro[4.5]decan-3-yl)-N-(2-(2-hydroxyethoxy)ethyl)benzamide], with 100 to 1000 nM. Consider `CCOc1cc(-c2ccc(F)cc2)c(C2CC2)cc1CN1CCC2(CC1)CN(C13CC(C(=O)NCCOCCO)(C1)C3)C(=O)O2` [compound 92, 3-(8-((2-cyclopropyl-5-ethoxy-4′-fluoro-[1,1′-biphenyl]-4-yl)methyl)-2-oxo-1-oxa-3,8-diazaspiro [4.5]decan-3-yl)-N-(2-(2-hydroxyethoxy)ethyl)bicyclo [1.1.1] pentane-1-carboxamide], for which the IC50 is at most 100 nM.

The molecule `CCOc1cc(-c2ccc(F)cc2)c(C2CC2)cc1CN1CCC2(CC1)CN(c1ccc(C(=O)NCCOC(CO)CO)cc1)C(=O)N2` [Example 73, 4-(8-((2-cyclopropyl-5-ethoxy-4′-fluoro-[1,1′-biphenyl]-4-yl)methyl)-2-oxo-1,3,8-triazaspiro[4.5]decan-3-yl)-N-(2-((1,3-dihydroxypropan-2-yl)oxy)ethyl)benzamide] registered an IC50 of at most 100 nM. In the case of `CCOc1cc(C(=O)OC)c(C2CC2)cc1CN1CCC2(CC1)CC(=O)N(c1ccc(C(=O)NCCNC(N)=O)cc1)C2` [Example 38, methyl 2-cyclopropyl-5-ethoxy-4-((3-oxo-2-(4-((2-ureidoethyl)carbamoyl)phenyl)-2,8-diazaspiro[4.5]decan-8-yl)methyl)benzoate] it was 100 to 1000 nM. Then `CCOc1cc(CN2CCC3(CC2)CN(c2ccc(C(=O)NC[C@H](O)[C@@H](O)[C@H](O)[C@H](O)CO)cc2)C(=O)O3)cc(OCC)c1-c1ccc(F)cc1` [Example 4, 4-(8-((2,6-diethoxy-4′-fluoro-[1,1′-biphenyl]-4-yl)methyl)-2-oxo-1-oxa-3,8-diazaspiro[4.5]decan-3-yl)-N-((2S,3R,4R,5R)-2,3,4,5,6-pentahydroxyhexyl)benzamide], with 100 to 1000 nM; and `CCOc1cc(-c2ccc(F)cn2)c(C2CC2)cc1CN1CCC2(CC1)CN(c1ccc(S(=O)(=O)NCCOCCO)cc1)C(=O)O2` [Example 82, 4-(8-(5-cyclopropyl-2-ethoxy-4-(5-fluoropyridin-2-yl)benzyl)-2-oxo-1-oxa-3,8-diazaspiro[4.5]decan-3-yl)-N-(2-(2-hydroxyethoxy)ethyl)benzenesulfonamide], with at most 100 nM. Turning to `CCOc1cc(C(=O)OC)c(C2CC2)cc1CN1CCC2(CC1)CC(=O)N(c1ccc(C(=O)NCCCP(C)(=O)O)cc1)C2` [Example 33, (3-(4-(8-(5-cyclopropyl-2-ethoxy-4-(methoxycarbonyl)benzyl)-3-oxo-2,8-diazaspiro[4.5]decan-2-yl)benzamido)propyl)(methyl)phosphinic acid], the IC50 was above 5000 nM. Then `CCOc1cc(C(=O)OC)c(C2CC2)cc1CN1CCC2(CC1)CN(c1ccc(C(=O)NCCCS(N)(=O)=O)cc1)C(=O)N2` [Example 79, methyl 2-cyclopropyl-5-ethoxy-4-((2-oxo-3-(4-((3-sulfamoylpropyl)carbamoyl)phenyl)-1,3,8-triazaspiro[4.5]decan-8-yl)methyl)benzoate], with 100 to 1000 nM; and `CCOc1cc(C(=O)OC)c(C2CC2)cc1CN1CCC2(CC1)CC(=O)N(c1ccc(C(=O)N3CCC(CS(N)(=O)=O)CC3)cc1)C2` [Example 53, methyl 2-cyclopropyl-5-ethoxy-4-((3-oxo-2-(4-(4-(sulfamoylmethyl)piperidine-1-carbonyl)phenyl)-2,8-diazaspiro[4.5]decan-8-yl)methyl)benzoate], with 100 to 1000 nM; and `CCOc1cc(C(=O)OCc2oc(=O)oc2C)c(C2CC2)cc1CN1CCC2(CC1)CC(=O)N(c1ccc(C(=O)NC[C@H](O)[C@@H](O)[C@H](O)[C@H](O)CO)cc1)C2` [compound 24], with above 5000 nM. Then `CCOc1cc(C(=O)OC)c(C2CC2)cc1CN1CCC2(CC1)CC(=O)N(c1ccc(C(=O)N3CC(CO)(CO)C3)cc1)C2` [Example 42, methyl 4-((2-(4-(3,3-bis(hydroxymethyl)azetidine-1-carbonyl)phenyl)-3-oxo-2,8-diazaspiro[4.5]decan-8-yl)methyl)-2-cyclopropyl-5-ethoxybenzoate], with 1000 to 5000 nM.

In general, IC50 refers to the concentration at which inhibition is half-maximal. Read a high IC50 as a need for much substance.

The values above are taken from patent publication US20230113609A1, “SSTR5 ANTAGONISTS” (Kallyope, Inc., priority 2019, published 2023).
